The record followed here is patent publication US20240116946A1 (Gilead Sciences, Inc., priority 2022, published 2024).

Where two headings read alike, the source gives them in different places. Where only a bound is given, the exact number is not on record here.

Experiment [1] has as its system SARS-CoV-2-NLuc. Put plainly: microbe, parasite or virus in culture. The format is cell-based, SARS Coronavirus 2.
In experiment [2] the target is recombinant SARS-CoV-2 Main protease (Mpro) (Severe acute respiratory syndrome coronavirus 2 (2019-nCoV) (SARS-CoV-2), UniProt P0DTD1). Put plainly: Cov Mpro Biochemical IC50 Assay.
Where [3] appears, read: Severe acute respiratory syndrome coronavirus, 48 h, read-out: MPro EC50.
Setting [4] is: recombinant SARS-CoV-2 Mpro, fluorogenic peptide substrate, read-out: MPro IC50.
Where [5] appears, read: Severe acute respiratory syndrome coronavirus, 48 h; read-out: MPro EC50.
The mark [6] stands for this setting: recombinant SARS-CoV-2 Mpro 7.5 nM, fluorogenic peptide substrate 40 μM, read-out: MPro IC50.

`O=c1[nH]c2cc(-c3ccccc3Cl)sc2c(=O)n1-c1cncc2ccc(N3CCN(C4COC4)CC3)cc12` [Example 392]: the EC50 in experiment [1] (setting [3]) amounted to 6.75 nM. Moreover, in experiment [2] (setting [4]), the half-maximal inhibitory concentration (IC50) was < 2.54 nM.

On to `COc1cc(-c2cc3c(s2)c(=O)n(-c2cncc(C#CC(C)(C)O)c2)c(=O)n3CCC#N)c(Cl)cc1F` [Example 1038, 3-(6-(2-chloro-4-fluoro-5-methoxyphenyl)-3-(5-(3-hydroxy-3-methylbut-1-yn-1-yl)pyridin-3-yl)-2,4-dioxo-3,4-dihydrothieno[3,2-d]pyrimidin-1(2H)-yl)propanenitrile], for which, in experiment [1] (setting [5]), the EC50 stood at 5.69 nM. For the same compound, the concentration for half-maximal inhibition (IC50) in experiment [2] (setting [6]) stood at 1.28 nM.

Take `COc1cc(-c2cc3[nH]c(=O)n(-c4cncc5ccccc45)c(=O)c3cc2OC)c(Cl)cc1F` (single isomer, unassigned) [Example 1055, 7-(2-chloro-4-fluoro-5-methoxyphenyl)-3-(isoquinolin-4-yl)-6-methoxyquinazoline-2,4(1H,3H)-dione]: the EC50 in experiment [1] (read-out: MPro EC50) is 460 nM. In experiment [2] (setting [6]), the half-maximal inhibitory concentration (IC50) was found to be 459 nM.

For the compound `O=c1[nH]c2cc(-c3c(Cl)cccc3-c3cnn4c3COCC4)ccc2c(=O)n1-c1cncc2ccccc12` [Example 305], in experiment [1] (setting [3]), the concentration for a half-maximal effect (EC50) turned out to be 12.8 nM. Also, the half-inhibitory concentration (IC50) in experiment [2] (setting [4]) turned out to be 8.8 nM.

In the case of `COc1cc(-c2cc3[nH]c(=O)n(-c4cncc5cnn(CC(F)F)c45)c(=O)c3s2)c(Cl)cc1F` [Example 730], the 50% effective concentration (EC50) in experiment [1] (setting [3]) is 28.9 nM. Moreover, the IC50 in experiment [2] (setting [6]) turned out to be 10.1 nM.

Take `O=c1[nH]c2cc(-c3c(Cl)cccc3-c3cnn4c3OCCC4)sc2c(=O)n1-c1cncc2ccccc12` [Example 528]: the EC50 in experiment [1] (setting [3]) worked out at 7.22 nM. Further, in experiment [2] (setting [6]), the half-inhibitory concentration (IC50) was determined as 7.09 nM.

As for `COc1cc(-c2cc3c(s2)c(=O)n(-c2cncc4cnn(C)c24)c(=O)n3CCC#N)c(Cl)cc1F` (single isomer, unassigned) [Example 645, 3-[6-(2-chloro-4-fluoro-5-methoxy-phenyl)-3-(1-methylpyrazolo[4,3-c]pyridin-7-yl)-2,4-dioxo-thieno[3,2-d]pyrimidin-1-yl]propanenitrile], the half-maximal effective concentration (EC50) in experiment [1] (read-out: MPro EC50) was 36 nM. Besides, the 50% inhibitory concentration (IC50) in experiment [2] (setting [6]) was 43.5 nM.

As for `Cc1c(-c2cccc(Cl)c2-c2cc3[nH]c(=O)n(-c4cncc5ccccc45)c(=O)c3s2)cn2ncnc2c1C` [Example 114], the half-maximal effective concentration (EC50) in experiment [1] (setting [3]) worked out at 44.4 nM. Besides, the IC50 in experiment [2] (setting [4]) worked out at 10.9 nM.

As for `N#Cc1cc(-c2cc3[nH]c(=O)n(-c4cncc5ccccc45)c(=O)c3s2)c(Cl)cc1F` [Example 646], in experiment [1] (setting [3]), the 50% effective concentration (EC50) worked out at 11800 nM. Besides, the 50% inhibitory concentration (IC50) in experiment [2] (setting [6]) turned out to be 1900 nM.

`N#Cc1cccc(-c2ccc3c(=O)n(-c4cncc5ccccc45)c(=O)[nH]c3c2)c1` [Example 34]: the EC50 in experiment [1] (setting [3]) is 6530 nM. In addition, the IC50 in experiment [2] (setting [4]) was determined as 1520 nM.

For `COc1ccc(-c2cc3[nH]c(=O)n(-c4cncc5ccccc45)c(=O)c3s2)c(Cl)c1` [Example 722], the EC50 in experiment [1] (setting [3]) stood at 68.8 nM. In addition, in experiment [2] (setting [6]), the IC50 is 34 nM.

`COc1cc(-c2cc3c(s2)c(=O)n(-c2cncc4ccn(C)c(=O)c24)c(=O)n3CC#N)c(Cl)cc1F` [Example 696]: in experiment [1] (setting [3]), the EC50 was 29.2 nM. For the same compound, in experiment [2] (setting [6]), the IC50 is 3.15 nM.

With `COc1cc(-c2cc3c(s2)c(=O)n(-c2cncc4cccc(Cl)c24)c(=O)n3CCC#N)c(Cl)cc1F` [Example 921], the EC50 in experiment [1] (setting [3]) was determined as 1.92 nM. Besides, the 50% inhibitory concentration (IC50) in experiment [2] (setting [6]) stood at 1.42 nM.

For the compound `O=c1c2ccc(-c3ccccc3Cl)cc2[nH]c(=S)n1-c1cncc2ccccc12` [Example 239], the EC50 in experiment [1] (setting [5]) was determined as 1820 nM. In addition, in experiment [2] (MPro IC50, recombinant SARS-CoV-2 Mpro, fluorogenic peptide substrate), the IC50 worked out at 4840 nM.

On to `Cn1ncc2cncc(-n3c(=O)[nH]c4cc(-c5ccccc5Cl)sc4c3=O)c21` [Example 495], for which the half-maximal effective concentration (EC50) in experiment [1] (setting [3]) stood at 17.2 nM. Further, in experiment [2] (setting [6]), the IC50 is 6.41 nM.

Take `COc1cc(-c2cc3[nH]c(=O)n(-c4cncc5c(F)cccc45)c(=O)c3s2)c(Cl)cc1F` [Example 1081]: the concentration for a half-maximal effect (EC50) in experiment [1] (setting [3]) came to 17.9 nM. Also, the half-maximal inhibitory concentration (IC50) in experiment [2] (setting [6]) was 8.16 nM.

On to `COc1cc(-c2cc3c(s2)c(=O)n(-c2cncnc2)c(=O)n3CCC#N)c(Cl)cc1F` [Example 983], for which the EC50 in experiment [1] (setting [3]) came to 23.1 nM. In addition, the concentration for half-maximal inhibition (IC50) in experiment [2] (setting [6]) turned out to be 6.05 nM.

Turning to `Cn1ncc2cncc(-n3c(=O)c4sc(-c5ccc(C#N)cc5Cl)cc4n(CCC#N)c3=O)c21` [Example 1025], in experiment [1] (setting [3]), the concentration giving a half-maximal response (EC50) amounted to 244 nM. Further, the half-maximal inhibitory concentration (IC50) in experiment [2] (setting [6]) worked out at 86.4 nM.

Take `COc1cc(-c2cc3[nH]c(=O)n(-c4cncc5nn(C)c(C)c45)c(=O)c3s2)c(Cl)cc1F` [Example 754]: in experiment [1] (setting [3]), the EC50 was found to be 76.3 nM. Also, the IC50 in experiment [2] (setting [6]) came out at 9.21 nM.

As to `COc1ccc(C#N)c(-c2cc3[nH]c(=O)n(-c4cncc5ccc(N6CCOCC6)cc45)c(=O)c3cc2F)c1` [Example 435], the concentration for a half-maximal effect (EC50) in experiment [1] (setting [3]) turned out to be 37.4 nM. Further, the IC50 in experiment [2] (setting [6]) amounted to 6.97 nM.

Turning to `O=c1[nH]c2cc(-c3ccc4ccccc4c3)ccc2c(=O)n1-c1cncc2ccccc12` [Example 51], the EC50 in experiment [1] (setting [3]) came to 6800 nM. Moreover, in experiment [2] (setting [4]), the half-maximal inhibitory concentration (IC50) was > 100000 nM.

`COc1ccc(Cl)c(-c2cc3[nH]c(=O)n(-c4cncc5sc(C#N)c(C)c45)c(=O)c3s2)c1` [Example 1050, 4-(6-(2-chloro-5-methoxyphenyl)-2,4-dioxo-1,4-dihydrothieno[3,2-d]pyrimidin-3(2H)-yl)-3-methylthieno[2,3-c]pyridine-2-carbonitrile]: the EC50 in experiment [1] (setting [5]) stood at 25.5 nM. For the same compound, the IC50 in experiment [2] (setting [6]) was determined as 8.89 nM.

On to `O=c1[nH]c2cc(-c3ccccc3Cl)sc2c(=O)n1-c1cncc(OCC(F)(F)F)c1` [Example 381], for which the EC50 in experiment [1] (setting [3]) amounted to 145 nM. The IC50 in experiment [2] (setting [4]) was determined as 5070 nM.

Take `O=c1[nH]c2cc(-c3ccccc3Cl)ccc2c(=O)n1-c1cncc2ccccc12` (single isomer, unassigned) [Example 105, 7-(2-chlorophenyl)-3-(isoquinolin-4-yl)quinazoline-2,4(1H,3H)-dione]: the 50% effective concentration (EC50) in experiment [1] (read-out: MPro EC50) stood at 74.3 nM. The 50% inhibitory concentration (IC50) in experiment [2] (setting [4]) is 70.9 nM.

In the case of `COc1cc(-c2cc3c(s2)c(=O)n(-c2cncc4ccccc24)c(=O)n3CC2(CC#N)CC2)c(Cl)cc1F` [Example 661], in experiment [1] (setting [3]), the EC50 came to 37 nM. In addition, the half-maximal inhibitory concentration (IC50) in experiment [2] (setting [6]) turned out to be 29.5 nM.

For `COc1ccc(Cl)c(-c2cc3[nH]c(=O)n(-c4cncc5nc(C(F)(F)F)sc45)c(=O)c3s2)c1` [Example 487], the half-maximal effective concentration (EC50) in experiment [1] (setting [3]) is 742 nM. The IC50 in experiment [2] (setting [6]) amounted to 908 nM.

As for `Cc1cncc(-n2c(=O)[nH]c3cc(-c4ccccc4Cl)ccc3c2=O)c1OCC(F)(F)F` [Example 374], in experiment [1] (setting [3]), the concentration giving a half-maximal response (EC50) is 1240 nM. Also, in experiment [2] (setting [4]), the IC50 turned out to be 1130 nM.

In the case of `COC(=O)[C@H]1C[C@@H]1c1cncc(-n2c(=O)[nH]c3cc(-c4ccccc4Cl)ccc3c2=O)c1C` [Example 126], the EC50 in experiment [1] (setting [3]) was > 50000 nM. In addition, the IC50 in experiment [2] (setting [4]) was > 50000 nM.

Take `N#CCCn1c(=O)n(-c2cncc(Cl)c2)c(=O)c2sc(-c3ccc(F)cc3Cl)cc21` [Example 787]: the EC50 in experiment [1] (setting [3]) was 33.2 nM. In addition, the IC50 in experiment [2] (setting [6]) worked out at 13 nM.

In the case of `CN1C(=O)CC(C)(C)c2cc(-c3cccc(Cl)c3-c3ccc4c(=O)n(-c5cncc6ccccc56)c(=O)[nH]c4c3)ccc21` [Example 315], the concentration for a half-maximal effect (EC50) in experiment [1] (setting [3]) worked out at 40.2 nM. Moreover, the IC50 in experiment [2] (setting [4]) amounted to 42 nM.

For the compound `COc1cc(-c2cc3[nH]c(=O)n(-c4cncc5scc(C)c45)c(=O)c3s2)c(Cl)cc1F` (single isomer, unassigned) [Example 1056, 6-(2-chloro-4-fluoro-5-methoxyphenyl)-3-(3-methylthieno[2,3-c]pyridin-4-yl)thieno[3,2-d]pyrimidine-2,4(1H,3H)-dione], in experiment [1] (read-out: MPro EC50), the EC50 was < 1.01 nM. In addition, the IC50 in experiment [2] (setting [6]) worked out at 2.34 nM.

`O=c1c2sc(-c3cccc4c3CCC4)cc2n(Cc2ccc(O)cc2)c(=O)n1-c1cncc2ccccc12` [Example 169]: in experiment [1] (read-out: MPro EC50), the EC50 came out at 744 nM. Further, in experiment [2] (setting [4]), the IC50 came to 5550 nM.
